# Measured values: patent US8217045B2, “Organic compounds” (Novartis AG, priority 2007, dated 2012)
# Columns and labels:
# c-Abl (His-cAbl) = molecular target: T1, c-Abl (His-cAbl) (Homo sapiens, UniProt P00519); assay: in vitro enzyme assay, wild-type Abl catalysed phosphorylation; type: biochemical; settings: 16 nM His-cAbl, 10 μM ATP, 1 hour at 30° C.; read-out: IC50, inhibition of wild-type Abl catalysed phosphorylation
# T1 construct: The His-tagged kinase domain of Abl is cloned and expressed; His tag; made in house; host or cells: baculovirus/Sf9
# T1 sequence (P00519 242-493 limits assumed): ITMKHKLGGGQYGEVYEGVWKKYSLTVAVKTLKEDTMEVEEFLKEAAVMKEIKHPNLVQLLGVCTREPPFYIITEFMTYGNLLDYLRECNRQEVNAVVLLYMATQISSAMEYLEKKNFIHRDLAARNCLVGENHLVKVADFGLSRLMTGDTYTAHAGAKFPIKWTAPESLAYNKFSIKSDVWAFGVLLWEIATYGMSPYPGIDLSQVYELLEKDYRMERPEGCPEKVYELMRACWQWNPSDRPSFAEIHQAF
# Procedure: Test for activity against wild-type and mutant Abl protein tyrosine kinase:
# The test, an in vitro enzyme assay, is conducted as a filter binding assay as follows: The His-tagged kinase domain of Abl is cloned and expressed in the baculovirus/Sf9 system as described by Bhat et al., J. Biol. Chem. 1997; 272:16170-16175. A protein of 37 kD (Abl kinase) is purified by a two-step procedure over a Cobalt metal chelate column followed by an anion exchange column with a yield of 1-2 mg/L of Sf9 cells. The purity of the Abl kinase is >90% as judged by SDS-PAGE after Coomassie blue staining.
# Based on the optimized assay conditions for the individual kinases a specific assay set-up was chosen. The assays were prepared and incubated on a liquid handling robot system using 384-well plates. To the assay plates containing 50 nL compound or control solutions, 4.5 μL of solution A consisting of the peptide substrate and ATP in assay buffer were added. The reactions were initiated by adding 4.5 μL of solution B consisting of the respective kinase in assay buffer. The reactions were incubated for 1 hour at 30° C. in a final reaction volume of 9.05 μL. Based on a generic assay buffer (50 mM HEPES pH7.5, 1 mM DTT, 0.02% Tween20, 0.02% BSA), following components were added depending on the chosen kinase: • c-Abl: 16 nM His-cAbl, 5 μM peptide substrate (FITC-Ahx-EAIYAAPFAKKK-CONH2), 10 mM MgCl2, 10 μM ATP • c-Abl-T315I: 2.4 nM His-cAbl-T315I, 5 μM peptide substrate (FITC-Ahx-EAIYAAPFAKKK-CONH2), 10 mM MgCl2, 10 μM ATP
# After incubation, the kinase reactions were stopped by the addition of 16 μL of stop solution (100 mM HEPES, 5% DMSO, 0.1% Coating reagent, 10 mM EDTA, 0.015% Brij 35). Subsequently, the assay plates were transferred to a Caliper LabChip3000 reader and the unphosphorylated substrate and the phosphorylated product were separated and quantitated in a microfluidic chip.
# Bcr-Abl = Bcr-Abl (Homo sapiens, UniProt P00519); assay: Bcr-Abl phosphorylation capture ELISA in 32D-Bcr-Abl cells; type: cell-based, murine; settings: 90 min at 37° C., read-out: IC50, reduction of Bcr-Abl phosphorylation
# Chain of Bcr-Abl (P00519 with tags, fused parts or gaps): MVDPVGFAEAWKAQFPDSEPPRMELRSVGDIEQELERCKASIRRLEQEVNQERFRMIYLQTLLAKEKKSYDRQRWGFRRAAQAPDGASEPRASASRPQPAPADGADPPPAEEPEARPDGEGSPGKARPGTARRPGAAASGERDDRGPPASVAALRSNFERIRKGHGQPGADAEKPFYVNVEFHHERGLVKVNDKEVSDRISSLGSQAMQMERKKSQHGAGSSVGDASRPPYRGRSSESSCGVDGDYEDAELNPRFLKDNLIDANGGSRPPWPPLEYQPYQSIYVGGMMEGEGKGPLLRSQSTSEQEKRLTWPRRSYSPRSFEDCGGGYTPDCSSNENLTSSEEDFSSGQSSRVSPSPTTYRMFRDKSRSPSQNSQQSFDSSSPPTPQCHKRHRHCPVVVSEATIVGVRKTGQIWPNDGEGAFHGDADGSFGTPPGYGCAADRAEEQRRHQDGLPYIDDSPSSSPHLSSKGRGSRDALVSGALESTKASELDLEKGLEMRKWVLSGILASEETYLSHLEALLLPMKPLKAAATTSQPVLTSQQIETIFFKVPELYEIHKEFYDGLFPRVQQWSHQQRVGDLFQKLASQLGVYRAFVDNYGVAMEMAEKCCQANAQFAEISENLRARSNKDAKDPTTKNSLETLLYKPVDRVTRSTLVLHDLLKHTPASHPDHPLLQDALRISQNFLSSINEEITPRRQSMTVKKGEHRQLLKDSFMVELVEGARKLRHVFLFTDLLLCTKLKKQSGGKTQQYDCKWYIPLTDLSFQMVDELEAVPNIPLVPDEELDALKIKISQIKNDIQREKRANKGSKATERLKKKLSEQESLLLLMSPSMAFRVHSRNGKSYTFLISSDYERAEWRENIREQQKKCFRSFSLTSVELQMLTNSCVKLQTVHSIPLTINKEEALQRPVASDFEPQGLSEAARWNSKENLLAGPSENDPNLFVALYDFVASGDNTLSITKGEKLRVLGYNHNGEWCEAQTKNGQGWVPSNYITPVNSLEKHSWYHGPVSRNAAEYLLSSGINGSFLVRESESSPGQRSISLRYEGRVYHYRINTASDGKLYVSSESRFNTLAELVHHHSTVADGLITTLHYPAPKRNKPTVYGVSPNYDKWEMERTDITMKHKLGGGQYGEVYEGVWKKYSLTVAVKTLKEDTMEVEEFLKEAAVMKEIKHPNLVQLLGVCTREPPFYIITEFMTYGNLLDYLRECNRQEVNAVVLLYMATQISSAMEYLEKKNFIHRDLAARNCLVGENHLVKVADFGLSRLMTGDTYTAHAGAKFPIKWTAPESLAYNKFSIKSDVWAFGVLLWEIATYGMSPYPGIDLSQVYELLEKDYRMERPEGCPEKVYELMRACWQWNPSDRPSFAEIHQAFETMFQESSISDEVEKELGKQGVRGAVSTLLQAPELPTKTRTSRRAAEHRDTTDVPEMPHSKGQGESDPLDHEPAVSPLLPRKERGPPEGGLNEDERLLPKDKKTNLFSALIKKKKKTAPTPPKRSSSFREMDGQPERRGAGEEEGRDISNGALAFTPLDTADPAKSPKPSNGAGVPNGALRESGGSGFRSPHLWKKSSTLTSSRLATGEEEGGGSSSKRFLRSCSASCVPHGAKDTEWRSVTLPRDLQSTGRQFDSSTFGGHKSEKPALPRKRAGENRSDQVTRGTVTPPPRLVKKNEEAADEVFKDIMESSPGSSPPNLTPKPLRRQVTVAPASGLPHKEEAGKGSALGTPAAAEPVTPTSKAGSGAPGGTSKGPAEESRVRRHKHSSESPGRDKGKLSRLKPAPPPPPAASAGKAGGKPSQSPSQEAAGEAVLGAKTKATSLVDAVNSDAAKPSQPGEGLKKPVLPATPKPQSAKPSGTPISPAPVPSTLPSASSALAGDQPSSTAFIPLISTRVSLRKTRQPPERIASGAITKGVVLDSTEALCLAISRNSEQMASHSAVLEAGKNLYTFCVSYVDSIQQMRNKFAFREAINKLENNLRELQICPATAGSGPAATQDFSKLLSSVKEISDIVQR
# Description: 32D cl3 cells are obtained from the American Type Culture Collection (ATCC CRL11346) and Ba/F3 cells are obtained from the German Collection of Microorganisms and Cell Cultures (DSMZ, Braunschweig and DSMZ No. ACC 300) Palacios et al., Nature, 1984; 309:126 and Palacios et al., Cell, 1985:41:72.
# Oncogene 1996; 12: 839-46; and Okuda K, Golub T R, Gilliland D G, Griffin J D. p210BCR-ABL, p190BCR-ABL, and TEL/ABL activate similar signal transduction pathways in hematopoietic cell lines. Oncogene 1996; 13:1147-52.)
# The cells express the fusion Bcr-Abl protein with a constitutively active Abl kinase and proliferate growth factor independent. The cells are expanded in RPMI 1640 (AMIMED), 10% fetal calf serum (FCS), 2 mM glutamine (Gibco) (“complete medium”), and a working stock is prepared by freezing aliquots of 2×10^6 cells per vial in freezing medium (95% FCS, 5% DMSO (SIGMA)). After thawing, the cells are used during maximally 10-12 passages for the experiments. The antibody anti-Abl SH3 domain cat. #06-466 from Upstate Biotechnology is used for the ELISA. For detection of Bcr-Abl phosphorylation, the anti-phosphotyrosine antibody Ab PY20, labelled with alkaline phosphatase ([…]) from ZYMED (cat. #03-7722) is used. […]
compound,measurement,setting,value
"O=C(Nc1cc(N2CCNCC2)cc(C(F)(F)F)c1)c1cccc2cc(Oc3ccnc(NC(=O)C4CC4)c3)ccc12 [Example 10, 6-[[2-(Cyclopropanecarbonyl-amino)-pyridin-4-yl]oxy]-naphthalene-1-carboxylic acid (3-piperazin-1-yl-5-trifluoromethyl-phenyl)-amide]",IC50,c-Abl (His-cAbl),< 5 nM
same,IC50,Bcr-Abl,101 to 370 nM
